# Laboratory results published in patent US11130780B2, “Inhibitors of growth factor activation enzymes” (Washington University, priority 2015, dated 2021).
# Where two headings read alike, the source gives them in different places. Positions of bridges follow the written chain, without caps; N, C: chain ends. Residues, ends and D or L forms follow the SMILES beside them. *: point of attachment. X2 = N=C(N)NCCC[C@H](N*)C(=O)c1nccs1
# What was measured:
# Type in all cases: biochemical
# [1] = target: T1, HGFA (Homo sapiens, UniProt Q04756); experiment: Fluorescent kinetic enzyme inhibitor assay of HGFA; conditions: read-out: HGFA Ki
# T1 construct: His6 tag (N); seven amino acid spacer and seven amino acid TEV cleavage site (N); Honey Bee melittin signal peptide (N); made in house; host or cells: High 5 insect cells (baculovirus; virus raised in Sf9)
# T1 sequence (Q04756 373-655): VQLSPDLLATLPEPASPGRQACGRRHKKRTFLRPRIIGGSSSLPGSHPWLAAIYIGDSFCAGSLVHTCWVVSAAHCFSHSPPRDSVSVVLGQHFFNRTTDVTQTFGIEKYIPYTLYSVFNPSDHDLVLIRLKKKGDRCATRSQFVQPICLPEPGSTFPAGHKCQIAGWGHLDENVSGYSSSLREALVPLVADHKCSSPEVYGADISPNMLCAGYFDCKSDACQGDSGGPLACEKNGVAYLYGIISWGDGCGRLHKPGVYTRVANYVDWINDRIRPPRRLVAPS
# Excerpt: Using primers identified as SEQ ID NO 1, SEQ ID NO 2, and standard PCR protocols, the nucleotide sequence encoding amino acids 373-655 of HGFA was synthesized. This PCR product was cloned into the SfoI-HindIII sites of a modified pFastBac HT baculovirus expression vector (Addgene, Cambridge, Mass.). This vector contains a six amino His tag followed by a seven amino spacer and a seven amino acid TEV cleavage site placed immediately downstream of the Honey Bee melittin signal peptide. Using a modified Bac to Bac Expression System (Life Technologies, Carlsbad, Calif.), recombinant HGFA bacmids were obtained by transforming DH10Bac Escherichia coli cells. To obtain HGFA containing baculovirus, purified bacmids were transfected into Sf9 insect cells. After 5 days in culture at 27° C., media was harvested from transfected Sf9 cells. This media was used to prepare baculovirus infected insect cells (BIICs). These BIIICs were used to infect High 5 insect cells. Four days post infection, media was harvested and recombinant protein prepared as follows. Media was chilled to 4° C. and spun at 4000×g for 20 minutes (all subsequent steps were performed at 4° C. unless noted). Clarified media was passed first through a Whatman GF/B 1 um (#1821-047, GE Healthcare Life Sciences, Piscataway, N.J.) and then a 0.22 um PES membrane (#99955, TPP Techno Plastic Products AG, Trasadingen, Switzerland) and then concentrated using a Pall Centramate tangential flow system and Centramate T-series Cassette (#OS010T12, Pall Corporation, Port Washington, N.Y.). Concentrated media was then buffer exchanged in two steps, five volumes of 50 mM Na-phosphate, 500 mM NaCl, pH 6.2, followed by five volumes of 50 mM Na-phosphate, 500 mM NaCl, pH 7.5. The concentrated and buffered exchanged insect cell media was again filtered as above and made 25 mM imidazole (#1202, Sigma-Aldrich, St. Louis, Mo.) and was mixed with nickel agarose beads (#H-321-25, Gold Biotechnology, Inc., St. Louis Mo.). After mixing this slurry for 12 hours, nickel agarose beads were allowed to settle by gravity and then loaded into a column. Beads were washed with buffer (25 mM Na-phosphate, 500 mM NaCl, 25 mM imidazole, pH 8) and the bound protein eluted using (25 mM Na-phosphate, 500 mM NaCl, 250 mM imidazole, pH 8). Using a Amicon Ultra-4 Centrifugal filters (#UFC801008, Merck Millipore, Ltd., Tullagreen, Ireland), peak protein fractions were concentrated and run over a Superdex-200 10/300 GL column (GE Healthcare Life Sciences, Piscataway, N.J.) in 10 mM Tris, 200 mM NaCl, 0.2 mM EDTA, pH 8. HGFA containing fractions were pooled, concentrated, made 50% glycerol, and stored at minus 20° C. Protein was quantitated using a modified Lowry protein assay (#500-0006, Bio-Rad Laboratories, Hercules, Calif.).
# Inhibitors (11-pt serial dilutions, 0-20 μM final concentration in reaction) were serially diluted in DMSO (2% DMSO final concentration) and then mixed with either recombinant serine protease domain of HGFA [Z. Han, P. K. Harris, D. E. Jones, R. Chugani, T. Kim, M. Agarwal, W. Shen, S. A. Wildman, J. W. Janetka, Acs Med Chem Lett 2014, 5, 1219-1224], matriptase (Charles Craik, UCSF) or hepsin* (#4776-SE-010, R&D Systems, Minneapolis, Minn.) in black 384 well plates (Corning #3575. Corning, N.Y.). […] The final substrate concentrations for all assays were at the Km for the respective enzymes. Changes in fluorescence (excitation at 380 nm and emission at 460 nm) were measured at room temperature over time in a Biotek Synergy 2 plate reader (Winnoski, Vt.). Using GraphPad Prism version 6.04 software program, (GraphPad Software, San Diego, Calif., www.graphpad.com), a four parameter curve fit was used to determine the inhibitor IC50s from a plot of the mean reaction velocity versus the inhibitor concentration. The IC50 values represent the average of three separate experimental determinations.
# [2] = target: T2, HGFA (Homo sapiens, UniProt Q04756); experiment: P4-P2 substrate specificity using HyCoSuL, HGFA; parameters: P3 Position % Activity HGFA / P2 Position % Activity HGFA: concentration or dose not given beside the values; P4 Position % Activity HGFA: tested at 100 µM; conditions: HyCoSuL substrate library; for P2 Position % Activity HGFA: amino acid fixed at P2 position; for P3 Position % Activity HGFA: amino acid fixed at P3 position; for P4 Position % Activity HGFA: amino acid fixed at P4 position
# T2 sequence (Q04756 408-655 limits assumed): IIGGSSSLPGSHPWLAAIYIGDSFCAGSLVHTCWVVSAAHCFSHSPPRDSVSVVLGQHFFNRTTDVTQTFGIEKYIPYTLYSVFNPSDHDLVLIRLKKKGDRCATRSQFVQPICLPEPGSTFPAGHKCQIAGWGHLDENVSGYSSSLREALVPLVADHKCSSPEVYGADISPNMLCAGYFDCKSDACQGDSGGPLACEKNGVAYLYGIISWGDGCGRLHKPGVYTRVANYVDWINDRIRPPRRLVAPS
# T2 sequence (Q04756 373-407 partner limits assumed): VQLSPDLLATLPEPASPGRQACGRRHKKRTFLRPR
# Description: (§1) Each of the P4, P3, and P2 sublibraries were screened at the 100 μM concentration with hepsin either HGFA in a 100 μL final volume per well (99 μL of protease in buffer+1 μL of 10 mM substrates mixture). The total time of the assay was 30 minutes, however only linear portions of the progress curve (5-15 minutes) were used for velocity (RFU/s) calculations. Each sublibrary screening was repeated at least 3-times and the average value calculated from each measurement was used to create the substrate specificity matrix—the best recognized amino acid in each position was set to 100%, and other amino acids were adjusted accordingly.
# HFGA enzyme was diluted in the assay buffer (0.15 M NaCl, 0.025 M Tris, 0.005 M CaCl2, pH=8.0) to the final concentration of 10-20 nM (depending of sublibrary) and incubated at 25° C. for 30 minutes before added to a substrate.
# [3] = target: T3, hepsin (Homo sapiens, UniProt P05981); experiment: P4-P2 substrate specificity using HyCoSuL, hepsin; parameters: concentration or dose not given beside the values; conditions: HyCoSuL substrate library; for P2 Position % Activity Hepsin: amino acid fixed at P2 position; for P3 Position % Activity Hepsin: amino acid fixed at P3 position; for P4 Position % Activity Hepsin: amino acid fixed at P4 position
# T3 construct: purchased R&D Systems 4776-SE-010
# Description: as §1
# Recombinant human hepsin (10 μg in 20 uL, 4776-SE-010, R&D Systems) was added to the 100 μL of activation buffer (0.1 M Tris, 0.15 M NaCl, 0.01 M CaCl2, 0.05% TRITON-X, pH=8.0) and incubated at 37° C. for 24 hours (hepsin concentration in activation buffer 2 μM). Once activated hepsin was diluted in assay buffer (0.05 M Tris, pH=9.0) to the final concentration of 4 nM and incubated at 37° C. for 15 minutes before added to a substrate.
# T3 sequence (P05981 163-417 limits assumed): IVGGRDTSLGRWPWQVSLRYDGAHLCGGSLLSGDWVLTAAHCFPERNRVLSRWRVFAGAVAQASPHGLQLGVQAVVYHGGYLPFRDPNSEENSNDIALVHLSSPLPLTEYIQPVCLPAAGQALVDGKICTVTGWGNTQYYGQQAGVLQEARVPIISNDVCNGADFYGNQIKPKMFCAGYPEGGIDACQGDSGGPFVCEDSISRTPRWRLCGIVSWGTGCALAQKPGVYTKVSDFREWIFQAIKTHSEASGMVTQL
# T3 sequence (P05981 45-162 partner limits assumed): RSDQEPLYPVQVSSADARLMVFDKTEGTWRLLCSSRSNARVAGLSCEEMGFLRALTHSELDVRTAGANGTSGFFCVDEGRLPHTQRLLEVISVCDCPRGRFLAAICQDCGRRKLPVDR
Compound,"Ki ([1]; Table 6.1, Fluorogenic Assay) [µM]",further results
"N=C(N)NCCC[C@H](NC(=O)[C@H](Cc1ccccc1)NC(=O)[C@@H](N)Cc1c[nH]c2ccccc12)C(=O)c1nc2ccccc2s1 [Compound 1-13A1, H-WFR-kbt]",5.68,
"CC(C)C[C@H](NC(=O)[C@H](N)Cc1c[nH]c2ccccc12)C(=O)N[C@@H](CCCNC(=N)N)C(=O)c1nc2ccccc2s1 [Compound 1-15A1, H-dWLR-kbt]",0.128,
"N=C(N)NCCC[C@H](NC(=O)[C@H](Cc1ccccc1)NC(=O)[C@H](N)Cc1c[nH]c2ccccc12)C(=O)c1nc2ccccc2s1 [Compound 1-18A1, H-dWFR-kbt]",2.25,
"CC(C)C[C@H](NC(=O)[C@H](Cc1c[nH]c2ccccc12)NC(=O)[C@@H](N)Cc1cncn1COCc1ccccc1)C(=O)N[C@@H](CCCNC(=N)N)C(=O)c1nc2ccccc2s1 [Compound 1-54A1, H-His(Bom)WLR-kbt]",3.71,
"CC(C)C[C@H](NC(=O)[C@@H](N)Cc1c[nH]c2ccccc12)C(=O)N[C@@H](CCCNC(=N)N)C(=O)c1nc2ccc(C(=O)O)cc2s1 [Compound 1-56A1, H-WLR-kbt-COOH]",1.38,
"CC(C)C[C@H](NC(=O)[C@H](N)Cc1c[nH]c2ccccc12)C(=O)N[C@@H](CCCNC(=N)N)C(=O)c1nc2ccc(C(=O)O)cc2s1 [Compound 1-57A1, H-dWLR-kbt-COOH]",0.346,
"CC(C)C[C@H](NC(=O)[C@H](CCCNC(=N)N)NC(=O)[C@H](CCCCN)NC(=O)CCCCC[N+]1=C(/C=C/C=C/C=C2/N(C)c3ccc4ccccc4c3C2(C)C)C(C)(C)c2c1ccc1ccccc21)C(=O)N[C@@H](CCCNC(=N)N)C(=O)c1nc2ccccc2s1 [Compound 1178-2, Cy5.5-KRLR(SEQ ID NO: 8)-kbt]",0.608,
"CC(C)C[C@H](NC(=O)[C@H](CCCNC(=N)N)NC(=O)[C@H](CCCCN)NC(=O)CCCCC[N+]1=C(/C=C/C=C/C=C2/N(C)c3ccc4ccccc4c3C2(C)C)C(C)(C)c2c1ccc1ccccc21)C(=O)N[C@@H](CCCNC(=N)N)C(=O)CCl [Compound 1179, Cy5.5-KRLR(SEQ ID NO: 8)-cmk]",0.0341,
"N=C(N)NCCC[C@H](NC(=O)[C@@H]1CC(=O)NCCCC[C@H](N)C(=O)N[C@@H](CCC(N)=O)C(=O)N1)C(=O)N[C@@H](CCCNC(=N)N)C(=O)c1nccs1 [Compound 7074, (2S,5S,13S)-13-amino-2-(3-amino-3-oxopropyl)-N—((S)-5-guanidino-1-(((S)-5-guanidino-1-oxo-1-(thiazol-2-yl)pentan-2-yl)amino)-1-oxopentan-2-yl)-3,7,14-trioxo-1,4,8-triazacyclotetradecane-5-carboxamide] (H-KQDR-X2; lactam 1-3)",,"Ki ([1]; Table 7.1, first HGFA column): 5.94 µM; Ki ([1]; Table 7.1, second column headed HGFA): 0.00155 µM"
"N=C(N)NCCC[C@H](NC(=O)[C@H](CC(N)=O)NC(=O)OCC1c2ccccc2-c2ccccc21)C(=O)c1nc2ccccc2s1 [Compound 7185-3, Fmoc-NR-kbt]",> 20,
"N=C(N)NCCC[C@H](NC(=O)[C@H](CC(=O)O)NC(=O)OCC1c2ccccc2-c2ccccc21)C(=O)c1nc2ccccc2s1 [Compound 7185-4, Fmoc-DR-kbt]",> 20,
"N=C(N)NCCC[C@H](NC(=O)[C@H](CCC(=O)O)NC(=O)OCC1c2ccccc2-c2ccccc21)C(=O)c1nc2ccccc2s1 [Compound 7185-7, Fmoc-ER-kbt]",> 20,
"N=C(N)NCCC[C@H](NC(=O)[C@H](Cc1cnc[nH]1)NC(=O)OCC1c2ccccc2-c2ccccc21)C(=O)c1nc2ccccc2s1 [Compound 7185-9, Fmoc-HR-kbt]",6.36,
"CC[C@H](C)[C@H](NC(=O)OCC1c2ccccc2-c2ccccc21)C(=O)N[C@@H](CCCNC(=N)N)C(=O)c1nc2ccccc2s1 [Compound 7185-10, Fmoc-IR-kbt]",6.47,
"N=C(N)NCCC[C@H](NC(=O)[C@H](CCCCN)NC(=O)OCC1c2ccccc2-c2ccccc21)C(=O)c1nc2ccccc2s1 [Compound 7185-12, Fmoc-KR-kbt]",> 20,
"N=C(N)NCCC[C@H](NC(=O)[C@@H]1CCCN1C(=O)OCC1c2ccccc2-c2ccccc21)C(=O)c1nc2ccccc2s1 [Compound 7187-15, Fmoc-PR-kbt]",> 20,
"N=C(N)NCCC[C@H](NC(=O)[C@H](CO)NC(=O)OCC1c2ccccc2-c2ccccc21)C(=O)c1nc2ccccc2s1 [Compound 7187-16, Fmoc-SR-kbt]",> 20,
"C[C@@H](O)[C@H](NC(=O)OCC1c2ccccc2-c2ccccc21)C(=O)N[C@@H](CCCNC(=N)N)C(=O)c1nc2ccccc2s1 [Compound 7188-17, Fmoc-TR-kbt]",> 20,
D-Arg,,P2 Position % Activity HGFA [2]: 0.00%; P3 Position % Activity HGFA [2]: 29.10%; P4 Position % Activity HGFA [2]: 23.20%; P2 Position % Activity Hepsin [3]: 0.00%; P3 Position % Activity Hepsin [3]: 66.08%; P4 Position % Activity Hepsin [3]: 44.37%
D-His,,P2 Position % Activity HGFA [2]: 0.00%; P3 Position % Activity HGFA [2]: 11.09%; P4 Position % Activity HGFA [2]: 7.79%; P2 Position % Activity Hepsin [3]: 0.00%; P3 Position % Activity Hepsin [3]: 40.09%; P4 Position % Activity Hepsin [3]: 19.33%
